Experimental data reported in US11090304B2 (Amgen Inc., priority 2018, dated 2021).
Where two headings read alike, the source gives them in different places.

Columns and labels:
[1] = target: GDP-bound KRAS protein (aa 1-169), containing both G12C and C118A amino acid substitutions (Homo sapiens, UniProt P01116, C118A/G12C); assay: Coupled nucleotide exchange assay (SOS-mediated, AlphaScreen); type: biochemical; settings: 5 min compound pre-incubation; for IC50: read-out: Coupled exchange IC50 (5 min)
Chain of GDP-bound KRAS protein (aa 1-169), containing both G12C and C118A amino acid substitutions (P01116 1-169 isoform P01116-2 G12C/C118A): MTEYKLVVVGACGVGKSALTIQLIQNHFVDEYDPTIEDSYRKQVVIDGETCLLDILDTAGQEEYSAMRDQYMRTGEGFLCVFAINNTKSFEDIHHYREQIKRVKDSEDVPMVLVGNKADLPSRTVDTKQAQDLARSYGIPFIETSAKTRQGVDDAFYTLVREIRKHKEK

[2] = test system: Phosphorylation of ERK1/2 in MIA PaCa-2 cells; assay: Phospho-ERK1/2 MSD assay in MIA PaCa-2 cells; type: cell-based; settings: read-out: p-ERK IC50 (2 h; MIA PaCa-2), 2 h compound treatment
How it was run: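 In the procedure, cells were plated a day ahead at 25,000 per well. Next, a dilution series of compound in growth medium was added for 2 or 4 h. EGF (10 ng/mL) stimulation for 10 min preceded washing and RIPA lysis. Lysate phospho-ERK1/2 was read by MSD, with IC50 derived by 4-parameter logistic analysis.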

Coupled exchange IC50 (5 min) [1]	IC50 ([2]; Homo sapiens, MIA PaCa-2, 2 h) [µM]	IC50 [1] [µM]	IC50 [2] [µM]	Structure (SMILES)
0.015 | nda μM	0.004			C=CC(=O)N1C[C@H](C)N(c2nc(=O)n(-c3c(C)ccnc3C(C)C)c3nc(-c4c(N)cccc4F)c(Cl)cc23)[C@@H](C)C1 (atropisomer, axis not shown; (M)) [Example 73-15, (M)-7-(2-amino-6-fluorophenyl)-6-chloro-4-((2S,6S)-2,6-dimethyl-4-(2-propenoyl)-1-piperazinyl)-1-(4-methyl-2-(2-propanyl)-3-pyridinyl)pyrido[2,3-d]pyrimidin-2(1H)-one]
0.019 | nda μM	0.007			C=CC(=O)N1C[C@H](C)N(c2nc(=O)n(-c3c(C)ccnc3C(C)C)c3nc(-c4c(O)cccc4F)c(Cl)cc23)[C@@H](C)C1 (atropisomer, axis not shown; (M)) [Example 73-16, (M)-6-chloro-4-((2S,6S)-2,6-dimethyl-4-(2-propenoyl)-1-piperazinyl)-7-(2-fluoro-6-hydroxyphenyl)-1-(4-methyl-2-(2-propanyl)-3-pyridinyl)pyrido[2,3-d]pyrimidin-2(1H)-one]
		0.048	0.049	C=CC(=O)N1C[C@@H](C)N(c2nc(=O)n(-c3c(C)ccnc3C(C)C)c3nc(-c4c(O)cccc4F)c(F)cc23)[C@@H](C)C1 (atropisomer, axis not shown; (M)) [Example 75-1, (M)-4-(cis-2,6-Dimethyl-4-(2-propenoyl)-1-piperazinyl)-6-fluoro-7-(2-fluoro-6-hydroxyphenyl)-1-(4-methyl-2-(2-propanyl)-3-pyridinyl)pyrido[2,3-d]pyrimidin-2(1H)-one]
		0.213	0.049	C=CC(=O)N1CCN(c2nc(=O)n(-c3c(C)ccnc3C(C)C)c3nc(-c4ccccc4F)c(Cl)cc23)C[C@H]1C (atropisomer, axis not shown; (M)) [Example 78-1, (M)-6-Chloro-7-(2-fluorophenyl)-1-(4-methyl-2-(2-propanyl)-3-pyridinyl)-4-((3R)-3-methyl-4-(2-propenoyl)-1-piperazinyl)pyrido[2,3-d]pyrimidin-2(1H)-one]
		0.077	0.106	C=CC(=O)N1CCN(c2nc(=O)n(-c3c(C)ccnc3C(C)C)c3nc(-c4c(C)ccc5[nH]ncc45)c(Cl)cc23)[C@@H](C)C1 (atropisomer, axis not shown; (M)) [Example 82-1, (M)-6-Chloro-7-(5-methyl-1H-indazol-4-yl)-1-(4-methyl-2-(2-propanyl)-3-pyridinyl)-4-((2S)-2-methyl-4-(2-propenoyl)-1-piperazinyl)pyrido[2,3-d]pyrimidin-2(1H)-one]
0.045 | nda μM	0.095			C=CC(=O)N1CCN(c2nc(=O)n(-c3c(C)ccnc3C(C)C)c3nc(-c4c(O)cccc4F)c(Cl)cc23)C[C@H]1C (atropisomer, axis not shown; (M)) [Example 129, (M)-6-Chloro-7-(2-fluoro-6-hydroxyphenyl)-1-(4-methyl-2-(2-propanyl)-3-pyridinyl)-4-((3R)-3-methyl-4-(2-propenoyl)-1-piperazinyl)pyrido[2,3-d]pyrimidin-2(1H)-one]
		0.952	3.92	Cc1ccnc(C(C)C)c1-n1c(=O)nc(N2CCN(C(=O)/C=C/CN(C)C)C[C@@H]2C)c2cc(F)c(-c3c(O)cccc3F)nc21 (atropisomer, axis not shown; (M)) [Example 145, (M)-4-((2S)-4-((2E)-4-(Dimethylamino)-2-butenoyl)-2-methyl-piperazinyl)-6-fluoro-7-(2-fluoro-6-hydroxyphenyl)-1-(4-methyl-2-(2-propanyl)-3-pyridinyl)pyrido[2,3-d]pyrimidin-2(1H)-one]
0.065 | nda μM	0.237			C=CC(=O)N1CCN(c2nc(=O)n(-c3c(C)cc[n+]([O-])c3C(C)C)c3nc(-c4ccccc4F)c(Cl)cc23)C(C)C1 (atropisomer, axis not shown; (M)) [Example 151, (M)-6-Chloro-7-(2-fluorophenyl)-1-(4-methyl-1-oxido-2-(2-propanyl)-3-pyridinyl)-4-((2S)-2-methyl-4-(2-propenoyl)-1-piperazinyl)pyrido[2,3-d]pyrimidin-2(1H)-one]
		0.084	0.021	C=CC(=O)N1CCN(c2nc(=O)n(-c3c(CN(C)C)ccnc3C(C)C)c3nc(-c4ccccc4F)c(Cl)cc23)[C@@H](C)C1 (atropisomer, axis not shown; (M)) [Example 152, (M)-6-Chloro-1-(4-((dimethylamino)methyl)-2-(2-propanyl)-3-pyridinyl)-7-(2-fluorophenyl)-4-((2S)-2-methyl-4-(2-propenoyl)-1-piperazinyl)pyrido[2,3-d]pyrimidin-2(1H1)-one]

The next lines start with the compound.

Structure (SMILES)	Coupled exchange IC50 (5 min) [1]	IC50 ([2]; Homo sapiens, MIA PaCa-2, 2 h) [µM]	IC50 [1] [µM]	IC50 [2] [µM]
C=CC(=O)N1CCN(c2nc(=O)n(-c3cccnc3C(C)C)c3nc(-c4ccccc4F)c(Cl)cc23)[C@@H](C)C1 (single isomer, unassigned) [Example 54-9-2]	0.046 | nda μM			0.034
C=CC(=O)N1CCN(c2nc(=O)n(-c3ccccc3C3CCC3)c3nc(-c4c(O)cccc4F)c(Cl)cc23)[C@@H](C)C1 (single isomer, unassigned) [Example 54-10-2]	0.071 | nda μM	0.06		
C=CC(=O)N1CCN(c2nc(=O)n(-c3cccnc3C(C)C)c3nc(-c4c(O)cccc4F)c(Cl)cc23)[C@@H](C)C1 (single isomer, unassigned) [Example 54-11-1]	0.049 | nda μM			0.054
C=CC(=O)N1CCN(c2nc(=O)n(-c3cccnc3C(C)C)c3nc(-c4c(O)cccc4F)c(Cl)cc23)[C@@H](C)C1 (single isomer, unassigned) [Example 54-11-2]	0.343 | nda μM			0.174
C=CC(=O)N1CCN(c2nc(=O)n(-c3ccccc3C3CCC3)c3nc(-c4ccccc4F)c(Cl)cc23)[C@@H](C)C1 (single isomer, unassigned) [Example 54-12-1]	0.13 | nda μM			0.078
C=CC(=O)N1CCN(c2nc(=O)n(-c3ccccc3C3CCC3)c3nc(-c4ccccc4F)c(Cl)cc23)[C@@H](C)C1 (single isomer, unassigned) [Example 54-12-2]	0.949 | nda μM			0.689
C=CC(=O)N1CCN(c2nc(=O)n(-c3c(C(C)C)ccnc3C)c3nc(-c4ccccc4F)c(Cl)cc23)[C@@H](C)C1 (single isomer, unassigned) [Example 54-18-1]	0.044 | nda μM			0.036
C=CC(=O)N1CCN(c2nc(=O)n(-c3c(C(C)C)ccnc3C)c3nc(-c4ccccc4F)c(Cl)cc23)[C@@H](C)C1 (single isomer, unassigned) [Example 54-18-2]	0.729 | nda μM			0.643
C=CC(=O)N1CCN(c2nc(=O)n(-c3ccccc3C(C)C)c3nc(-c4cc(OC(F)F)ccc4F)c(Cl)cc23)[C@@H](C)C1 (single isomer, unassigned) [Example 54-51-1]	0.108 | nda μM	0.263		
C=CC(=O)N1CCN(c2nc(=O)n(-c3c(OC)cccc3C(C)C)c3nc(-c4c(O)cccc4F)c(Cl)cc23)[C@@H](C)C1 (single isomer, unassigned) [Example 54-73-1]	0.025 | nda μM			0.038
C=CC(=O)N1CCN(c2nc(=O)n(-c3c(OC)cccc3C(C)C)c3nc(-c4c(O)cccc4F)c(Cl)cc23)[C@@H](C)C1 (single isomer, unassigned) [Example 54-73-2]	0.368 | nda μM			0.927
C=CC(=O)N1CCN(c2nc(=O)n(-c3ccccc3C(C)C)c3nc(C4=CCCCC4)c(Cl)cc23)[C@@H](C)C1 (single isomer, unassigned) [Example 54-75-1]	0.419 | nda μM	0.853		
C=CC(=O)N1CCN(c2nc(=O)n(-c3ccccc3C(C)C)c3nc(-c4ccc(F)cc4O)c(Cl)cc23)[C@@H](C)C1 (single isomer, unassigned) [Example 54-77-2]	0.136 | nda μM	0.176		
C=CC(=O)N1CCN(c2nc(=O)n(-c3ccccc3C(C)C)c3nc(-c4cc(F)ccc4O)c(Cl)cc23)[C@@H](C)C1 (single isomer, unassigned) [Example 54-78-2]	0.212 | nda μM	0.311		
C=CC(=O)N1CCN(c2nc(=O)n(-c3ccccc3C(C)C)c3nc(-c4ccc(F)cc4F)c(Cl)cc23)[C@@H](C)C1 (single isomer, unassigned) [Example 54-85-1]	3.4 | nda μM			1.51
C=CC(=O)N1CCN(c2nc(=O)n(-c3ccccc3C(C)C)c3nc(-c4ccc(F)cc4F)c(Cl)cc23)[C@@H](C)C1 (single isomer, unassigned) [Example 54-85-2]	0.078 | nda μM			0.079
C=CC(=O)N1CCN(c2nc(=O)n(-c3ccccc3C(C)C)c3nc(-c4cc(O)ccc4F)c(Cl)cc23)[C@@H](C)C1 (single isomer, unassigned) [Example 54-88-1]	0.077 | nda μM	0.084		
C=CC(=O)N1CCN(c2nc(=O)n(-c3ccccc3C(C)C)c3nc(-c4cc(O)ccc4Cl)c(Cl)cc23)[C@@H](C)C1 (single isomer, unassigned) [Example 54-90-1]	0.047 | nda μM			0.063
C=CC(=O)N1CCN(c2nc(=O)n(-c3ccccc3C(C)C)c3nc(-c4cc(O)ccc4Cl)c(Cl)cc23)[C@@H](C)C1 (single isomer, unassigned) [Example 54-90-2]	0.633 | nda μM			0.568
